Common to all, as to format: nucleic-acid assay
Common to all, as to conditions: Bos taurus

One experiment concerns Calf thymus DNA. Put plainly: Calf thymus DNA binding affinity compared to ethidium bromide.
The test system of experiment [1] is Nucleic Acid. Put plainly: DNA binding affinity by a decrease in fluorescence of an ethidium bromide calf thymus DNA solution; (41%).
Experiment [2] concerns Nucleic Acid. Nature of the experiment: DNA binding affinity by a decrease in fluorescence of an ethidium bromide calf thymus DNA solution; (34%).
Experiment [3] has as its system Nucleic Acid. Put plainly: DNA binding affinity by a decrease in fluorescence of an ethidium bromide calf thymus DNA solution; (25%).
For experiment [4], the system named is Nucleic Acid. Nature of the experiment: DNA binding affinity by a decrease in fluorescence of an ethidium bromide calf thymus DNA solution (0%).
The subject of experiment [5] is Nucleic Acid. Put plainly: DNA binding affinity by a decrease in fluorescence of an ethidium bromide calf thymus DNA solution; (12%).
For experiment [6], the system named is Nucleic Acid. Nature of the experiment: DNA binding affinity by a decrease in fluorescence of an ethidium bromide calf thymus DNA solution; (10%).
The subject of experiment [7] is Nucleic Acid. Nature of the experiment: DNA binding affinity by a decrease in fluorescence of an ethidium bromide calf thymus DNA solution; (33%).
Experiment [8] has as its system Nucleic Acid. Put plainly: DNA binding affinity by a decrease in fluorescence of an ethidium bromide calf thymus DNA solution; (39%).
In experiment [9] the test system is Nucleic Acid. Put plainly: DNA binding affinity by a decrease in fluorescence of an ethidium bromide calf thymus DNA solution; (36%).

A value given as a limit tells only on which side of the number the result lay.

On to `CN(C)CCN1C(=O)c2cccc3cc([N+](=O)[O-])cc(c23)C1=O`, for which the C50 with Calf thymus DNA was 11 µM.

In the experiment with Calf thymus DNA, `CN(C)CCCN1C(=O)c2cccc3cc([N+](=O)[O-])cc(c23)C1=O` came in with a C50 of 16 µM.

For `CCN(CC)CCN1C(=O)c2cccc3c([N+](=O)[O-])ccc(c23)C1=O`, in the experiment with Calf thymus DNA, the C50 worked out at 28 µM.

In the experiment on Calf thymus DNA, `O=C1c2cccc3c([N+](=O)[O-])ccc(c23)C(=O)N1CCN1CCCC1` returned a C50 of 11 µM.

`CNCCN1C(=O)c2cccc3cccc(c23)C1=O` came in with a C50 in the experiment with Nucleic Acid [1] of more than 100 µM.

Take `CNCCN1C(=O)c2cccc3cc([N+](=O)[O-])cc(c23)C1=O`: in the experiment on Calf thymus DNA, the C50 was 14 µM.

`O=C1c2cccc3c([N+](=O)[O-])ccc(c23)C(=O)N1CCO`: the C50 with Nucleic Acid [2] is more than 100 µM.

For the compound `O=C1c2cccc3cc([N+](=O)[O-])cc(c23)C(=O)N1CCO`, the C50 in the experiment with Nucleic Acid [3] is more than 100 µM.

For `CNCCN1C(=O)c2cccc3c([N+](=O)[O-])ccc(c23)C1=O`, the C50 with Calf thymus DNA is 19 µM.

Take `CCN(CC)CCN1C(=O)c2cccc3cccc(c23)C1=O`: the C50 with Calf thymus DNA turned out to be 100 µM.

With `O=C1c2cccc3c([N+](=O)[O-])ccc(c23)C(=O)N1CCc1ccccn1`, the C50 with Nucleic Acid [4] is more than 100 µM.

In the case of `O=C1c2cccc3cccc(c23)C(=O)N1CCO`, the C50 with Nucleic Acid [5] is more than 100 µM.

`O=C1c2cccc3cc([N+](=O)[O-])cc(c23)C(=O)N1CCc1ccccn1` displayed a C50 with Nucleic Acid [6] of more than 100 µM.

`O=C1c2cccc3cc([N+](=O)[O-])cc(c23)C(=O)N1CCN1CCCC1`: the C50 in the experiment with Calf thymus DNA is 10 µM.

Consider `CN(C)CCN1C(=O)c2cccc3c([N+](=O)[O-])ccc(c23)C1=O`, for which, in the experiment with Nucleic Acid [7], the C50 was more than 100 µM.

Compound `NCCN1C(=O)c2cccc3c([N+](=O)[O-])ccc(c23)C1=O` had a C50 with Calf thymus DNA of 17 µM.

Consider `NCCN1C(=O)c2cccc3cccc(c23)C1=O`, for which the C50 in the experiment with Calf thymus DNA was found to be 50 µM.

Take `CN(C)CCN1C(=O)c2cccc3cccc(c23)C1=O`: the C50 with Calf thymus DNA stood at 100 µM.

In the experiment with Calf thymus DNA, `CCN(CC)CCN1C(=O)c2cccc3cc([N+](=O)[O-])cc(c23)C1=O` had a C50 of 35 µM.

In the experiment with Nucleic Acid [8], `O=C1c2cccc3cc([N+](=O)[O-])cc(c23)C(=O)N1CCN1CCNCC1` returned a C50 of more than 100 µM.

On to `CN(C)CCCN1C(=O)c2cccc3c([N+](=O)[O-])ccc(c23)C1=O`, for which the C50 with Nucleic Acid [9] is more than 100 µM.
